# Like-named read-outs stand apart in the source and are kept apart here.
# Legend:
# [1] = background statement, relative to Irgacure 369 where stated; cited from earlier work
# [2] = background statement; cited from earlier work
# [3] = Acute oral toxicity test (LD50), OECD Test Guidelines 423; assay type: in vivo; conditions: for LD50: acute oral, OECD 423; for Acute oral toxicity assessment: judged from LD50 exceeding 5000 mg/kg
# [4] = Photo speed performance test; conditions: 6 parts by weight photoinitiator + 2 parts Chivacure DETX in 100 parts black flexo formulation; wet film 25.15 μm; Fusion F300 D-bulb 300 W/inch
# Source text: The black flexo formulation containing Oligomer 6325-100, EM2411 and carbon black (viscosity: 1750 cP) was mixed with a photoinitiator to carry out the photo speed performance test. […] The resultant mixture was coated on a printable pearlescent film (wet film thickness: 25.15 μm); and the coated printable pearlescent film was exposed to an UV light (Fusion F300, D-bulb, 300 W/inch) for curing.
# [5] = in UV inks; background statement; cited from earlier work
# [6] = Photoinitiator dosage test (curing performance); set-up: key to Curing performance, 1 time of UV light treatment / Curing performance, 2 times of UV light treatment / Curing performance, 3 times of UV light treatment / Curing performance, 4 times of UV light treatment: X: Not tack-free; Δ: Tack-free but not through-cure; ◯: Tack-free and through-cure; conditions: for Curing performance, 1 time of UV light treatment / Curing performance, 2 times of UV light treatment / Curing performance, 3 times of UV light treatment / Curing performance, 4 times of UV light treatment: 365 nm, 4 W/inch
# Method: The commercially available black flexo ink without a photoinitiator was mixed with a photoinitiator to carry out the photo speed performance test, and the effect of the amount of photo initiating compound Ia on the photo speed performance was evaluated. […] The resultant mixture was coated on a PET film with primer (means for improving adhesion) (dry film thickness: 5 μm). The coated PET film was exposed to an UV light (wavelength: 365 nm; 4 W/inch) for curing.
# [7] = background statement; cited from earlier work; remark: listed apart in the source
# [8] = Viscosity variation test, 0° C. atmosphere for 7 days; assay type: physicochemical; conditions: for Viscosity, Mixture I, 7 days / Viscosity, Mixture I, Initial: 4 parts by weight photoinitiator in Mixture I; for Viscosity, Mixture I, 7 days / Viscosity, Mixture II, 7 days / Viscosity, Mixture III, 7 days: after 7 days in 0° C. atmosphere; for Viscosity, Mixture I, Initial / Viscosity, Mixture II, Initial / Viscosity, Mixture III, Initial: before exposure; for Viscosity, Mixture II, 7 days / Viscosity, Mixture II, Initial: 4 parts by weight photoinitiator in Mixture II; for Viscosity, Mixture III, 7 days / Viscosity, Mixture III, Initial: 4 parts by weight photoinitiator in Mixture III
# [9] = Solubility test: dissolution in acrylate mixtures I to III; assay type: physicochemical; conditions: one-hour ultrasonication at room temperature
# Method: Mixtures I to III were prepared according to the composition provided below, and then 6 parts by weight of photoinitiator Trgacure® 369 (available from IGM), photoinitiator R-gen® 919 (available from Chitec Technology Co., Ltd.) or photo initiating compound Ia was added to each of the mixtures I to III.
# [10] = 4 parts by weight photoinitiator
# [11] = 8 parts by weight photoinitiator
smiles,measurement,setting,value
CCC(Cc1ccccc1)(C(=O)c1ccc(N(C)CCOC(C)=O)cc1)N(C)C (stereo not drawn) [compound IIa],Photo speed,[1],comparable to Irgacure® 369
same,Acute oral toxicity,[2],high acute oral toxicity
C=CCC(C(=O)c1ccccc1)(c1ccccc1)N(C)C (stereo not drawn) [compound 100],Photo speed,[1],poor photospeeds
CN(C)C(C)(C(=O)c1ccccc1)c1ccccc1 (stereo not drawn) [compound 96],Photo speed,[1],poor photospeeds
C=CCC(C)(C(=O)c1ccccc1)N1CCOCC1 (stereo not drawn) [compound 93],Photo speed,[1],poor photospeeds
CCC(Cc1ccccc1)(C(=O)c1ccc(N2CCOCC2)cc1)N(C)C (stereo not drawn) [Irgacure® 369],LD50,[3],>5000 mg/kg
same,LD50,"[3]; in vivo, read-out: LD50",> 5000 mg/kg
same,Acute oral toxicity assessment,[3],no acute oral toxicity
same,Photo speed,[4],120 m/minute
same,Dosage above which prone to precipitate,[5],over 4 wt %
same,"Curing performance, 1 time of UV light treatment",[6]; [10],X
same,"Curing performance, 2 times of UV light treatment",[6]; [10],X
same,"Curing performance, 3 times of UV light treatment",[6]; [10],X
same,"Curing performance, 4 times of UV light treatment",[6]; [10],Δ
same,Dissolution in black flexo ink,[6]; [11],Incomplete dissolution
same,Reproductive toxicity,[7],reproductive toxicity
same,"Viscosity, Mixture I, 7 days",[8],60.4 cP
same,"Viscosity, Mixture I, Initial",[8],52.7 cP
same,"Viscosity, Mixture II, 7 days",[8],Precipitate
same,"Viscosity, Mixture II, Initial",[8],385.0 cP
same,"Viscosity, Mixture III, 7 days",[8],Precipitate
same,"Viscosity, Mixture III, Initial",[8],487.0 cP
CCC(Cc1ccc(C)cc1)(C(=O)c1ccc(N2CCOCC2)cc1)N(C)C (stereo not drawn) [Irgacure® 379],Reproductive toxicity,[7],reproductive toxicity
C=CCC(C)(C(=O)c1ccccc1)N(C)C (stereo not drawn) [compound 95],Photo speed,[1],poor photospeeds
CCC1(C)OCCN1c1ccc(C(=O)C(CC)(Cc2ccccc2)N(C)C)cc1 (stereo not drawn) [Photo initiating compound Ia],LD50,[3],>5000 mg/kg
same,LD50,"[3]; in vivo, read-out: LD50",> 5000 mg/kg
same,Acute oral toxicity assessment,[3],no acute oral toxicity
same,Photo speed,[4],120 m/minute
same,"Curing performance, 1 time of UV light treatment",[6]; [10],X
same,"Curing performance, 2 times of UV light treatment",[6]; [10],X
same,"Curing performance, 3 times of UV light treatment",[6]; [10],X
same,"Curing performance, 4 times of UV light treatment",[6]; [10],Δ
same,"Curing performance, 1 time of UV light treatment",[6]; [11],Δ
same,Solubility in black flexo ink,[6]; amount increased up to 12 parts by weight,no solubility issue was observed
same,Precipitate after exposure to 0° C. atmosphere for 7 days,[8]; 4 parts by weight in mixtures I to III,no precipitate was observed
same,"Viscosity, Mixture I, 7 days",[8],51.2 cP
same,"Viscosity, Mixture I, Initial",[8],41.6 cP
same,"Viscosity, Mixture II, 7 days",[8],406.7 cP
same,"Viscosity, Mixture II, Initial",[8],351.3 cP
same,"Viscosity, Mixture III, 7 days",[8],547.8 cP
same,"Viscosity, Mixture III, Initial",[8],433.1 cP
same,"Dissolution, Mixture I",[9]; 6 parts by weight photoinitiator in Mixture I,Completely
same,"Dissolution, Mixture II",[9]; 6 parts by weight photoinitiator in Mixture II,Completely
same,"Dissolution, Mixture III",[9]; 6 parts by weight photoinitiator in Mixture III,Completely
CCCCCCNc1ccc(C(=O)C(CC)(Cc2ccccc2)N(C)C)cc1 (stereo not drawn) [compound I],Photo speed,[1],comparable to that of Irgacure® 369

# From patent publication US10385145B1, “Liquid photo initiating compound and uses of the same” (CHITEC TECHNOLOGY CO., LTD., priority 2018, dated 2019)
